In publication PMC6270595, “Synthesis and Cytotoxicity of Novel 10-Substituted Dihydroartemisinin Derivatives Containing N-Arylphenyl-ethenesulfonamide Groups” (Molecules, 2013):
Where two headings read alike, the source gives them in different places.

Assays:
[1] = system: U87MG (human glioblastoma); assay: MTT cytotoxicity assay, U87MG; assay type: cell-based; details: for IC50: U87MG cells, 50% cell growth inhibition after 72 h of drug exposure, MTT
Experimental: (§1) The cytotoxic activities of target compounds were evaluated against HT-29 (human colon cancer), MDA-MB-231 (human breast cancer), U87MG (human glioblastoma), H460 (human lung cancer), A549 (non-small-cell lung adenocarcinoma), HL-60 (human leukemic) cancer cell lines and one normal cell line WI-38 (human fetal lung fibroblasts) together with references DHA and cisplatin by a MTT assay.
(§2) The cytotoxic activities of compounds 3a–h and 6a–j were evaluated with the HT-29, MDA-MB-231, U87MG, H460, A549, HL-60 cancer cell lines and one normal cell line, WI-38, by the standard MTT assay in vitro [20], with DHA as the positive control. The cell lines were cultured in minimum essential medium (MEM) supplement with 10% fetal bovine serum (FBS). Approximately 4 × 10^3 cells, suspended in MEM medium, were plated on to each well of a 96-well plate and incubated in 5% CO2 at 37 °C for 24 h. The test compounds at indicated final concentrations were added to the culture medium and the cell cultures were continued for 72 h. Fresh MTT was added to each well at a terminal concentration of 5 μg/mL and incubated with cells at 37 °C for 4 h. The formazan crystals were dissolved in 100 μL DMSO each well, and the absorbency at 492 nm (for absorbance of MTT formazan) and 630 nm (for the reference wavelength) was measured with the ELISA reader. All of the compounds were tested twice in each of the cell lines. The results expressed as IC50 (inhibitory concentration 50%) were the averages of two determinations and calculated using the Bacus Laboratories Incorporated Slide Scanner (Bliss) software.

[2] = system: A549 (non-small-cell lung adenocarcinoma); assay: MTT cytotoxicity assay, A549; assay type: cell-based, human; details: A549 cells, 50% cell growth inhibition after 72 h of drug exposure
Experimental: as §1, §2

[3] = system: HT-29 (human colon cancer); assay: MTT cytotoxicity assay, HT-29; assay type: cell-based; details: HT-29 cells, 50% cell growth inhibition after 72 h of drug exposure, read-out: IC50(μM) HT29
Experimental: as §1, §2

[4] = system: H460 (human lung cancer); assay: MTT cytotoxicity assay, H460; assay type: cell-based; details: for IC50: H460 cells, 50% cell growth inhibition after 72 h of drug exposure, MTT
Experimental: as §1, §2

[5] = system: WI-38 (human fetal lung fibroblasts); assay: MTT cytotoxicity assay, normal cell line WI-38; assay type: cell-based; details: normal WI-38 cells, 50% cell growth inhibition after 72 h of drug exposure, read-out: IC50(μM) WI38
Experimental: as §1, §2

[6] = system: MDA-MB-231 (human breast cancer); assay: MTT cytotoxicity assay, MDA-MB-231; assay type: cell-based; details: MDA-MB-231 cells, 50% cell growth inhibition after 72 h of drug exposure
Experimental: as §1, §2

[7] = system: HL-60 (human leukemic); assay: MTT cytotoxicity assay, HL-60; assay type: cell-based; details: for IC50: HL-60 cells, 50% cell growth inhibition after 72 h of drug exposure, MTT
Experimental: as §1, §2

melting point [°C] | SMILES | IC50 ([1]; Homo sapiens, U-87 MG) [µM] | IC50 ([2]; Homo sapiens) [µM] | IC50 ([3]; Homo sapiens) [µM] | IC50 ([4]; Homo sapiens, NCI-H460) [µM] | IC50 ([5]; Homo sapiens) [µM] | IC50 ([6]; Homo sapiens) [µM] | IC50 ([7]; Homo sapiens) [µM] | activity fold higher than that of benzamide analog 6c ([1]; U87MG, versus 6c) [fold] | activity fold higher than that of benzamide analog 6c ([4]; H460, versus 6c) [fold] | activity fold higher than that of benzamide analog 6c ([7]; HL-60, versus 6c) [fold] | selectivity index (IC50 normal cell/IC50 cancer cell) ([7]; WI-38 normal cells versus HL-60) | IC50 [1] [µM] | IC50 [2] [µM] | IC50 [3] [µM] | IC50 [4] [µM] | IC50 [5] [µM] | IC50 [6] [µM] | IC50 [7] [µM]
151 to 153 | C[C@@H]1CC[C@H]2[C@@H](C)C(OCCNC(=O)c3ccc(COc4ccc(/C=C/S(=O)(=O)Nc5c(Cl)cccc5Cl)cc4)cc3)O[C@@H]3O[C@@]4(C)CC[C@@H]1[C@]32OO4 (stereo partly drawn) [Compound 6h, (E)-N-(2-(10β-Dihydroartemisinoxy)ethyl)-4((4-(2-(N-(2,6-dichlorophenyl)sulfamoyl)vinyl)phenoxy)methyl)benzamide] | 3.12 | 2.34 | 0.44 | 1.21 | 23.5 | 0.88 | 0.18 | – | – | – | – | – | – | – | – | – | – | –
136 to 138 | Cc1ccccc1NS(=O)(=O)/C=C/c1ccc(OCCOC2O[C@@H]3O[C@@]4(C)CC[C@H]5[C@H](C)CC[C@@H]([C@H]2C)[C@@]35OO4)cc1 (stereo partly drawn) [Compound 3e, (E)-2-(4-(2-(10β-Dihydroartemisinoxy)ethoxy)phenyl)-N-(2-methylphenyl)ethenesulfonamide] | 2.73 | 7.32 | 0.86 | 1.58 | 16.4 | 1.64 | 2.37 | – | – | – | – | – | – | – | – | – | – | –
146 to 149 | C[C@@H]1CC[C@H]2[C@@H](C)C(OCCNC(=O)c3ccc(COc4ccc(/C=C/S(=O)(=O)Nc5cccc(Cl)c5)cc4)cc3)O[C@@H]3O[C@@]4(C)CC[C@@H]1[C@]32OO4 (stereo partly drawn) [Compound 6b, (E)-N-(2-(10β-Dihydroartemisinoxy)ethyl)-4((4-(2-(N-(3-chlorophenyl)sulfamoyl)vinyl)phenoxy)methyl)benzamide] | 4.52 | 2.86 | 1.11 | 2.79 | 35.8 | 2.23 | 1.81 | – | – | – | – | – | – | – | – | – | – | –
– | C[C@H]1[C@@H](O)O[C@@H]2O[C@@]3(C)CC[C@H]4[C@H](C)CC[C@@H]1[C@@]24OO3 [DHA, dihydroartemisinin] | 15.8 | 10.1 | 5.6 | 12.4 | > 100 | 9.8 | 5.29 | – | – | – | – | – | – | – | – | – | – | –
– | C[C@@H]1CC[C@H]2[C@@H](C)C(OCCOc3ccc(/C=C/S(=O)(=O)Nc4ccc(OC(F)(F)F)cc4)cc3)O[C@@H]3O[C@@]4(C)CC[C@@H]1[C@]32OO4 (stereo partly drawn) [Compound 3c, (E)-2-(4-(2-(10β-Dihydroartemisinoxy)ethoxy)phenyl)-N-(4-trifluoromethoxyphenyl)ethenesulfonamide] | 1.59 | 2.11 | 0.2 | 0.97 | 37.5 | 0.39 | 0.05 | 2 | 3 | 2 | 750 | – | – | – | – | – | – | –
– | N.N.[Cl][Pt][Cl] [Cisplatin, cisplatin, reference compound] | – | – | – | – | – | – | – | – | – | – | – | 8.21 | 4.31 | 10.3 | 7.55 | 51.2 | 6.82 | 9.28
– | C[C@@H]1CC[C@H]2[C@@H](C)C(OCCNC(=O)c3ccc(COc4ccc(/C=C/S(=O)(=O)Nc5ccc(OC(F)(F)F)cc5)cc4)cc3)O[C@@H]3O[C@@]4(C)CC[C@@H]1[C@]32OO4 (stereo partly drawn) [Compound 6c, (E)-N-(2-(10β-Dihydroartemisinoxy)ethyl)-4((4-(2-(N-(4-trifluoromethoxyphenyl)sulfamoyl)vinyl)phenoxy)methyl)benzamide] | 3.71 | 1.57 | 0.29 | 2.7 | 28.2 | 0.49 | 0.09 | – | – | – | – | – | – | – | – | – | – | –
